According to ChEMBL document CHEMBL1143044, “The isolation of secondary metabolites and in vitro potent anti-cancer activity of clerodermic acid from Enicosanthum membranifolium” (Bioorg Med Chem, 2007):
Active and inactive are the calls of the source. No cut-off for these calls is given here.

Columns and labels:
Assay type in all cases: functional, cell-based
HL-60 [1] = assay: Induction of apoptosis in human HL60 cells at 200 uM in presence of 100 uM caspase inhibitor ZVADFMK by Trypan blue exclusion test
HL-60 [2] = assay: Induction of apoptosis in human HL60 cells assessed as nucleosomal DNA fragmentation after 24 hrs
HL-60 [3] = assay: Growth inhibition of human HL60 cells by Trypan blue exclusion test

For C[C@@H]1CC[C@@]2(C)C(C(=O)O)=CCCC2[C@@]1(C)CCC1=CC(=O)OC1 (stereo partly drawn) [CLERODERMIC ACID], the Activity (HL-60 [1]) was “Active”, the Activity (HL-60 [2]) was “Active” and the IC50 (HL-60 [3]) was 68 µM.
